Reference: patent US9890171B2, “Aldosterone synthase inhibitors” (Boehringer Ingelheim International GmbH, priority 2014, dated 2018)
pIC50: −log10 of the molar value.

target: aldosterone synthase (CYP11B2) (Macaca fascicularis, UniProt A0A2K5UPL9); assay: aldosterone synthase inhibition assay; assay type: biochemical, cynomolgus monkey; settings: cynomolgus adrenal gland mitochondria, 2 μM corticosterone, aldosterone quantified by mass spectrometry
Procedure: The aldosterone synthase inhibition assay employs cynomolgus adrenal gland mitochondria as the source of aldosterone synthase (CYP11B2). Mitochondria are prepared from frozen cynomolgus monkey adrenal glands according to Method A described in by J. D. McGarry et al. (Biochem. J., 1983, 214, 21-28), with a final resuspension in the AT buffer described in R. Yamaguchi et al. (Cell Death and Differentiation, 2007, 14, 616-624), frozen as aliquots in liquid nitrogen and stored at −80° C. until use.
Assays are performed in 96-well format in a final volume of 60 μL/well, containing 100 mM potassium phosphate, pH 7.4, 1% (v/v) DMSO, and additionally, 2 μM of corticosterone and […] of mitochondrial protein. Reactions are started by the addition of NADPH to 1 mM and allowed to proceed for 60-90 minutes at 37° C. Reactions are terminated by the addition of […]. One hundred microliters are then transferred to a glass filter plate and centrifuged at 570×g for 5 minutes and the filtrate is collected. Reaction product aldosterone is quantified by mass spectrometry. To determine the assay blank value (0% activity), NADPH is omitted from some reactions.
Dose dependent inhibition is quantified by the inclusion of compound at various concentrations. Maximum activity (100%) is defined by reactions containing NADPH, but without compound. Activities at each concentration are expressed as a percentage of the maximum activity (y-axis) and plotted against concentration of compound (x-axis) and the concentration corresponding to 50% activity (IC50) determined using the XLFit curve-fitting program using a 4-parameter logistic model.

aldosterone synthase (CYP11B2), sequence (A0A2K5UPL9 1-503): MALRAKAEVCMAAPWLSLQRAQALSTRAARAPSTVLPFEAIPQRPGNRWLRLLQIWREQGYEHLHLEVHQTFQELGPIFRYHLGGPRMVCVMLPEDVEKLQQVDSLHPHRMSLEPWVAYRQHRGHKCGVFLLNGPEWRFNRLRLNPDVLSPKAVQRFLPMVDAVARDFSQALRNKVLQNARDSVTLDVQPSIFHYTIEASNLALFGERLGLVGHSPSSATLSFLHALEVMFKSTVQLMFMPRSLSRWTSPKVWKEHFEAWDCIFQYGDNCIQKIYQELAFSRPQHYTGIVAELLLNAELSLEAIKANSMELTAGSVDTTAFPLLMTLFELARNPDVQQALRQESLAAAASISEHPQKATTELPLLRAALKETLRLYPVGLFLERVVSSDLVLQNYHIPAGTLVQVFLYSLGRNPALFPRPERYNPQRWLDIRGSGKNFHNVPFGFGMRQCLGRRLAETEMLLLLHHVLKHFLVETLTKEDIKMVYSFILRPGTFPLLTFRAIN

| pIC50 | Structure (SMILES) |
| --- | --- |
| 7.54 | O=C1CCc2cc(-c3cncc4c3COCC4O)ccc2N1 (single isomer, unassigned) [Compound 1, 6-(4-Hydroxy-3,4-dihydro-1H-pyrano[4,3-c]pyridin-8-yl)-3,4-dihydro-1H-quinolin-2-one] |
| 7.00 | O=C1CCc2cc(-c3cncc4c3COCC4O)ccc2N1 (single isomer, unassigned) [Compound 2, 6-(4-Hydroxy-3,4-dihydro-1H-pyrano[4,3-c]pyridin-8-yl)-3,4-dihydro-1H-quinolin-2-one] |
| 7.68 | Cc1n[nH]c2ccc(-c3cncc4c3COCC4O)cc12 (single isomer, unassigned) [Compound 12, 8-(3-Methyl-1H-indazol-5-yl)-3,4-dihydro-1H-pyrano[4,3-c]pyridin-4-ol] |
| 7.09 | Cc1n[nH]c2cc(-c3cncc4c3COCC4O)ccc12 (single isomer, unassigned) [Compound 13, 8-(3-Methyl-1H-indazol-6-yl)-3,4-dihydro-1H-pyrano[4,3-c]pyridin-4-ol] |
| 7.80 | Cn1nnc2ccc(-c3cncc4c3COCC4O)cc21 (single isomer, unassigned) [Compound 14, 8-(3-Methyl-3H-benzotriazol-5-yl)-3,4-dihydro-1H-pyrano[4,3-c]pyridin-4-ol] |
| 6.17 | OC1COCc2c(-c3ccc4scnc4c3)cncc21 (single isomer, unassigned) [Compound 20, 8-Benzothiazol-5-yl-3,4-dihydro-1H-pyrano[4,3-c]pyridin-4-ol] |
| 6.71 | OC1COCc2c(-c3ccc4cc[nH]c4c3)cncc21 (single isomer, unassigned) [Compound 21, 8-(1H-Indol-6-yl)-3,4-dihydro-1H-pyrano[4,3-c]pyridin-4-ol] |
| 6.71 | Cn1ncc2cc(-c3cncc4c3COCC4O)ccc21 (single isomer, unassigned) [Compound 23, 8-(1-Methyl-1H-indazol-5-yl)-3,4-dihydro-1H-pyrano[4,3-c]pyridin-4-ol] |
| 6.32 | OC1COCc2c(-c3ccc4cn[nH]c4c3)cncc21 (single isomer, unassigned) [Compound 24, 8-(1H-Indazol-6-yl)-3,4-dihydro-1H-pyrano[4,3-c]pyridin-4-ol] |
| 6.80 | OC1COCc2c(-c3ccc4c(c3)OCCO4)cncc21 (single isomer, unassigned) [Compound 25, 8-(2,3-Dihydro-benzo[1,4]dioxin-6-yl)-3,4-dihydro-1H-pyrano[4,3-c]pyridin-4-ol] |
| 6.48 | OC1COCc2c(-c3ccc4c(c3)OCCCO4)cncc21 (single isomer, unassigned) [Compound 28, 8-(3,4-Dihydro-2H-benzo[b][1,4]dioxepin-7-yl)-3,4-dihydro-1H-pyrano[4,3-c]pyridin-4-ol] |
| 7.31 | Cn1ncc2ccc(-c3cncc4c3COCC4O)cc21 (single isomer, unassigned) [Compound 29, 8-(1-Methyl-1H-indazol-6-yl)-3,4-dihydro-1H-pyrano[4,3-c]pyridin-4-ol] |
| 6.80 | OC1COCc2c(-c3ccc4[nH]ccc4c3)cncc21 (single isomer, unassigned) [Compound 31, 8-(1H-Indol-5-yl)-3,4-dihydro-1H-pyrano[4,3-c]pyridin-4-ol] |

Second part, the molecule before the results:

| Structure (SMILES) | pIC50 |
| --- | --- |
| OC1COCc2c(-c3ccccc3)cncc21 (single isomer, unassigned) [Compound 3, 8-Phenyl-3,4-dihydro-1H-pyrano[4,3-c]pyridin-4-ol] | 6.32 |
| N#Cc1ccc(-c2cncc3c2COCC3O)cc1 (single isomer, unassigned) [Compound 4, 4-(4-Hydroxy-3,4-dihydro-1H-pyrano[4,3-c]pyridin-8-yl)-benzonitrile] | 7.38 |
| OC1COCc2c(-c3ccccc3)cncc21 (single isomer, unassigned) [Compound 5, 8-Phenyl-3,4-dihydro-1H-pyrano[4,3-c]pyridin-4-ol] | 7.26 |
| N#Cc1ccc(-c2cncc3c2COCC3O)cc1 (single isomer, unassigned) [Compound 6, 4-(4-Hydroxy-3,4-dihydro-1H-pyrano[4,3-c]pyridin-8-yl)-benzonitrile] | 8.01 |
| N#Cc1ccc(-c2cncc3c2COCC3O)cc1Cl (single isomer, unassigned) [Compound 7, 2-Chloro-4-(4-hydroxy-3,4-dihydro-1H-pyrano[4,3-c]pyridin-8-yl)-benzonitrile] | 8.21 |
| CC(C)Oc1nc(-c2cncc3c2COCC3O)cs1 (single isomer, unassigned) [Compound 8, 8-(2-Isopropoxy-thiazol-4-yl)-3,4-dihydro-1H-pyrano[4,3-c]pyridin-4-ol] | 5.43 |
| Cc1n[nH]c2ccc(-c3cncc4c3COCC4O)cc12 (single isomer, unassigned) [Compound 10, 8-(3-Methyl-1H-indazol-5-yl)-3,4-dihydro-1H-pyrano[4,3-c]pyridin-4-ol] | 6.94 |
| Cc1n[nH]c2cc(-c3cncc4c3COCC4O)ccc12 (single isomer, unassigned) [Compound 11, 8-(3-Methyl-1H-indazol-6-yl)-3,4-dihydro-1H-pyrano[4,3-c]pyridin-4-ol] | 6.16 |
| Cn1nc(F)c2ccc(-c3cncc4c3COCC4O)cc21 (single isomer, unassigned) [Compound 15, 8-(3-Fluoro-1-methyl-1H-indazol-6-yl)-3,4-dihydro-1H-pyrano[4,3-c]pyridin-4-ol] | 8.11 |
| Cn1ncc2ccc(-c3cncc4c3COC3(CC3)C4O)cc21 (single isomer, unassigned) [Compound 16, 8-(1-methylindazol-6-yl)spiro[1,4-dihydropyrano[4,3-c]pyridine-3,1′-cyclopropane]-4-ol] | 7.90 |
| Cn1ncc2ccc(-c3cncc4c3COC3(CC3)C4O)cc21 (single isomer, unassigned) [Compound 17, 8-(1-methylindazol-6-yl)spiro[1,4-dihydropyrano[4,3-c]pyridine-3,1′-cyclopropane]-4-ol] | 8.10 |
| Cn1ncc2cc(F)c(-c3cncc4c3COCC4O)cc21 (single isomer, unassigned) [Compound 18, 8-(5-Fluoro-1-methyl-1H-indazol-6-yl)-3,4-dihydro-1H-pyrano[4,3-c]pyridin-4-ol] | 7.70 |
| Cn1ncc2cc(F)c(-c3cncc4c3COCC4O)cc21 (single isomer, unassigned) [Compound 19, 8-(5-Fluoro-1-methyl-1H-indazol-6-yl)-3,4-dihydro-1H-pyrano[4,3-c]pyridin-4-ol] | 6.82 |
| OC1COCc2c(-c3ccc4ncccc4c3)cncc21 (single isomer, unassigned) [Compound 22, 8-Quinolin-6-yl-3,4-dihydro-1H-pyrano[4,3-c]pyridin-4-ol] | 7.19 |
| Cc1nn(C)c(C)c1-c1cncc2c1COCC2O (single isomer, unassigned) [Compound 26, 8-(1,3,5-Trimethyl-1H-pyrazol-4-yl)-3,4-dihydro-1H-pyrano[4,3-c]pyridin-4-ol] | 5.82 |
| OC1COCc2c(-c3cnc4[nH]ccc4c3)cncc21 (single isomer, unassigned) [Compound 27, 8-(1H-Pyrrolo[2,3-b]pyridin-5-yl)-3,4-dihydro-1H-pyrano[4,3-c]pyridin-4-ol] | 5.89 |
| OC1COCc2c(-c3ccc4cnccc4c3)cncc21 (single isomer, unassigned) [Compound 30, 8-Isoquinolin-6-yl-3,4-dihydro-1H-pyrano[4,3-c]pyridin-4-ol] | 7.27 |
